In patent US10392368B2, “Pyrazolo and triazolo bicyclic compounds as JAK kinase inhibitors” (THERAVANCE BIOPHARMA R&D IP, LLC, priority 2017, dated 2019):

Columns and labels:
[1] = test system: IL-2 stimulated pSTAT5 in Tall-1 T cells; test: Cellular JAK3 potency assay: inhibition of IL-2 stimulated pSTAT5 in Tall-1 T cells; format: cell-based, human; conditions: for IC50: Homo sapiens, TALL-1, IL-2 stimulated pSTAT5 in Tall-1 T cells, read-out: Tall-1 (pIC50) (converted); for Tall-1 (pIC50): IL-2 stimulated pSTAT5 in Tall-1 T cells
Procedure, shortened: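 Inhibition of IL-2-induced pSTAT5 was quantified by AlphaLisa in Tall-1 cell lysates. Compound exposure lasted 1 h before 30 min stimulation with 300 ng/ml IL-2 final.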

JAK3 = target: T1, JAK3 (Homo sapiens, UniProt P52333); test: Biochemical JAK3 kinase assay (LanthaScreen); design: GST; purchased Life Technologies; conditions: for Ki: read-out: JAK 3 (pKi) (converted); for JAK3 (pKi)-JAK1 (pKi): selectivity: difference of pKi JAK3 and pKi JAK1
T1 sequence (P52333 1-1124): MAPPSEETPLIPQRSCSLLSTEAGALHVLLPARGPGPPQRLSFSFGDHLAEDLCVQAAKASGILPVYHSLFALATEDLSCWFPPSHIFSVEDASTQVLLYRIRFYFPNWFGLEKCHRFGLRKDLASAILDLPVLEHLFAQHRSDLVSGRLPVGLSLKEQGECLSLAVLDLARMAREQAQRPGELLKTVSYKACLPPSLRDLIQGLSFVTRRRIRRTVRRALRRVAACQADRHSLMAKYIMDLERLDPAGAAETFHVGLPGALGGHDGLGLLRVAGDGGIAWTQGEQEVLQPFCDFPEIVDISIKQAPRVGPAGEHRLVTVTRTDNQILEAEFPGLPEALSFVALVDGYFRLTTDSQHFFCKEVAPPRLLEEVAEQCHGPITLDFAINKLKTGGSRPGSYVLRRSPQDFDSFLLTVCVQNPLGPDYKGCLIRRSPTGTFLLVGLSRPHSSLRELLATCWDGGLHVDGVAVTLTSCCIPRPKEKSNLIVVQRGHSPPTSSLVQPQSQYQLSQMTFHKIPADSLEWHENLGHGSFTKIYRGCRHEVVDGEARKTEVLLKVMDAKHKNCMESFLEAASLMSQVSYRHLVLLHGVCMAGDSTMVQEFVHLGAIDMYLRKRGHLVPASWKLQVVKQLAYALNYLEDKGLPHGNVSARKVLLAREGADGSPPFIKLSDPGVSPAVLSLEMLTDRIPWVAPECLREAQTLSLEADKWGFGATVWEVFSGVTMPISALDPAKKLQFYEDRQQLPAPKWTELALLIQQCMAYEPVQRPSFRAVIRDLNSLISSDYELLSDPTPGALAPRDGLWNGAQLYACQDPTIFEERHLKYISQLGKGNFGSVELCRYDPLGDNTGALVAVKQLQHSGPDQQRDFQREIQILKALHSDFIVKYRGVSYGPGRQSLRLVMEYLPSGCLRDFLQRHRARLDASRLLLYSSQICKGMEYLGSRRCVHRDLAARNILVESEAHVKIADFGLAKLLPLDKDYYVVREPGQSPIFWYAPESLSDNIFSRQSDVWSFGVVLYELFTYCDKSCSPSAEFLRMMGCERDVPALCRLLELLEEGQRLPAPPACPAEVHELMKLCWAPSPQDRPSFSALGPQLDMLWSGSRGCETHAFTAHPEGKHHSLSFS
Procedure, shortened: (§1)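 GST-tagged JAK enzyme and GFP-STAT1 peptide preincubated with compound 1 h, then ATP added; 1 h kinase reaction at ambient temperature, pH 7.5 HEPES/MgCl2 buffer, 1% DMSO. Tb-anti-pSTAT1 (pTyr701) TR-FRET, 520/495 nm ratio; IC50 from 4-parameter fit, converted to pKi via Cheng-Prusoff.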

Tyk2 = target: T2, Tyk2 (Homo sapiens, UniProt P29597); test: Biochemical Tyk2 kinase assay (LanthaScreen); conditions: for Ki: read-out: Tyk 2 (pKi) (converted)
T2 construct: GST; purchased Life Technologies
Procedure: (§2) A panel of four LanthaScreen JAK biochemical assays (JAK1, 2, 3 and Tyk2) were carried in a common kinase reaction buffer (50 mM HEPES, pH 7.5, 0.01% Brij-35, 10 mM MgCl2, and 1 mM EGTA). Recombinant GST-tagged JAK enzymes and a GFP-tagged STAT1 peptide substrate were obtained from Life Technologies.
(§3) Serially or discretely diluted compounds were pre-incubated with each of the four JAK enzymes and the substrate in white 384-well microplates (Corning) at ambient temperature for 1 h. ATP was subsequently added to initiate the kinase reactions in 10 μL total volume, with 1% DMSO. […] Kinase reactions were allowed to proceed for 1 hour at ambient temperature before a 10 μL preparation of EDTA (10 mM final concentration) and Tb-anti-pSTAT1 (pTyr701) antibody (Life Technologies, 2 nM final concentration) in TR-FRET dilution buffer (Life Technologies) was added. The plates were allowed to incubate at ambient temperature for 1 h before being read on the EnVision reader (Perkin Elmer). Emission ratio signals (520 nm/495 nm) were recorded and utilized to calculate the percent inhibition values based on DMSO and background controls.
(§4) For dose-response analysis, percent inhibition data were plotted vs. compound concentrations, and IC50 values were determined from a 4-parameter robust fit model with the Prism software (GraphPad Software). Results were expressed as pIC50 (negative logarithm of IC50) and subsequently converted to pKi (negative logarithm of dissociation constant, Ki) using the Cheng-Prusoff equation.

JAK1 = target: T3, JAK1 (Homo sapiens, UniProt P23458); test: Biochemical JAK1 kinase assay (LanthaScreen); conditions: for Ki: read-out: JAK 1 (pKi) (converted)
T3 construct: GST; purchased Life Technologies
Procedure, shortened: as §1

JAK2 = target: T4, JAK2 (Homo sapiens, UniProt O60674); test: Biochemical JAK2 kinase assay (LanthaScreen); conditions: for Ki: read-out: JAK 2 (pKi) (converted)
T4 construct: GST; purchased Life Technologies
Procedure: as §2
as §3, with “Elmer).” for “Elmer). Emission ratio signals (520 nm/495 nm) were recorded and utilized to calculate the percent inhibition values based on DMSO and background controls.”
as §4

T3 sequence (P23458 whole entry): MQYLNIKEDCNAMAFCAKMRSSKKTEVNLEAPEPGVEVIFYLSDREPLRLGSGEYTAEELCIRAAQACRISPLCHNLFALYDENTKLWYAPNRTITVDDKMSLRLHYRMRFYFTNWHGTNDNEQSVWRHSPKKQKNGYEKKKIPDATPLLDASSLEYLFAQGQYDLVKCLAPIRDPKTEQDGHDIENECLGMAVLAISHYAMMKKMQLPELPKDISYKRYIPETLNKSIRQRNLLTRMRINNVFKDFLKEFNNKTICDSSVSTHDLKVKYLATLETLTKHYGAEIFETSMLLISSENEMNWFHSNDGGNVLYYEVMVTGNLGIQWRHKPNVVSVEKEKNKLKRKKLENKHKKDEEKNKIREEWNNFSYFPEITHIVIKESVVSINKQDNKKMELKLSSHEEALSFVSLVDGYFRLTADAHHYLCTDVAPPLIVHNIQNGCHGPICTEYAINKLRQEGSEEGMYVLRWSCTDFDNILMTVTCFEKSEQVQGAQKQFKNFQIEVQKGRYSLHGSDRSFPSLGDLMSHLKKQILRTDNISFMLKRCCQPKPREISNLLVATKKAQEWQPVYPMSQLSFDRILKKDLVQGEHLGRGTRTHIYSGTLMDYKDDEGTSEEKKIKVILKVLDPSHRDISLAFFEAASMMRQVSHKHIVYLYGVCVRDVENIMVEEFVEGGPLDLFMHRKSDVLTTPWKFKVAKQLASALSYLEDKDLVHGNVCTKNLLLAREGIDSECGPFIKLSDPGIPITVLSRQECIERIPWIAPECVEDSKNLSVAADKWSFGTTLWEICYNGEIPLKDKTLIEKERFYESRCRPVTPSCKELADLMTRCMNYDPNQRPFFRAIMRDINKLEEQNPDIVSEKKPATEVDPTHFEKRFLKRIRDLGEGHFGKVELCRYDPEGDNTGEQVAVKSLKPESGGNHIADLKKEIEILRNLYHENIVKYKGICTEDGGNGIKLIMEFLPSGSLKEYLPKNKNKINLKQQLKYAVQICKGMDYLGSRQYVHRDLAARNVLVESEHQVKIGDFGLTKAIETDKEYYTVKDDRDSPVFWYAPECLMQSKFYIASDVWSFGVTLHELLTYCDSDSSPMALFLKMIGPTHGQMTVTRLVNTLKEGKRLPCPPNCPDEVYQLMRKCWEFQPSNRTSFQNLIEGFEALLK
T4 sequence (O60674 whole entry): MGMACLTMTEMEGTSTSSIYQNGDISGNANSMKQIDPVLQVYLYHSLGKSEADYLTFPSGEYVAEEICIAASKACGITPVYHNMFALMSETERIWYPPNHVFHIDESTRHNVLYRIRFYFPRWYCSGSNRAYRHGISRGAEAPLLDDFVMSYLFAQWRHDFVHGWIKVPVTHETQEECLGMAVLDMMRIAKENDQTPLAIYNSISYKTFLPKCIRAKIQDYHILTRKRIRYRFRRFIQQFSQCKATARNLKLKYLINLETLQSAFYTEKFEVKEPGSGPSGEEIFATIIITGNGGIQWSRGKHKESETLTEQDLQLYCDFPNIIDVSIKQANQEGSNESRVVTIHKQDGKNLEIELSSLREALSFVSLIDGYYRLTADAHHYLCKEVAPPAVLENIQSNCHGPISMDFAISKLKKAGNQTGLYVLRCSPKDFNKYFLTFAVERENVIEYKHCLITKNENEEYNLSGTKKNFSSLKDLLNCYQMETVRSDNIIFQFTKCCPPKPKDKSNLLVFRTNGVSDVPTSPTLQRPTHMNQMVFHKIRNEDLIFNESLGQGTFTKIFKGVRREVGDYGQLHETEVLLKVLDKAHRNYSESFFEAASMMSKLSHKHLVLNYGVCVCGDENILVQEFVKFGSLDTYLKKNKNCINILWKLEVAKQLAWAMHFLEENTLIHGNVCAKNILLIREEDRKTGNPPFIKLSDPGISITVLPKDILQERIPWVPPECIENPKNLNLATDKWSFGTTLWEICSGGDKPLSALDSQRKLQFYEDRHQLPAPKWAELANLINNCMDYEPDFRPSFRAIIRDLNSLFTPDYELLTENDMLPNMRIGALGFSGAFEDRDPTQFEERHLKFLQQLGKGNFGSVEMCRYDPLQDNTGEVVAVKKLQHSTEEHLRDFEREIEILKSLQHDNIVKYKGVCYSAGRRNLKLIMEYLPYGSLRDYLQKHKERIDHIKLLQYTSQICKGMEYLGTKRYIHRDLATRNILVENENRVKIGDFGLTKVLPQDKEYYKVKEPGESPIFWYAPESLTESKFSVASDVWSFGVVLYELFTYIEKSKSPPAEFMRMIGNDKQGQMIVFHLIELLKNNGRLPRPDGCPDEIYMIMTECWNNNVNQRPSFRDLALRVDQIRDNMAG
T2 sequence (P29597 whole entry): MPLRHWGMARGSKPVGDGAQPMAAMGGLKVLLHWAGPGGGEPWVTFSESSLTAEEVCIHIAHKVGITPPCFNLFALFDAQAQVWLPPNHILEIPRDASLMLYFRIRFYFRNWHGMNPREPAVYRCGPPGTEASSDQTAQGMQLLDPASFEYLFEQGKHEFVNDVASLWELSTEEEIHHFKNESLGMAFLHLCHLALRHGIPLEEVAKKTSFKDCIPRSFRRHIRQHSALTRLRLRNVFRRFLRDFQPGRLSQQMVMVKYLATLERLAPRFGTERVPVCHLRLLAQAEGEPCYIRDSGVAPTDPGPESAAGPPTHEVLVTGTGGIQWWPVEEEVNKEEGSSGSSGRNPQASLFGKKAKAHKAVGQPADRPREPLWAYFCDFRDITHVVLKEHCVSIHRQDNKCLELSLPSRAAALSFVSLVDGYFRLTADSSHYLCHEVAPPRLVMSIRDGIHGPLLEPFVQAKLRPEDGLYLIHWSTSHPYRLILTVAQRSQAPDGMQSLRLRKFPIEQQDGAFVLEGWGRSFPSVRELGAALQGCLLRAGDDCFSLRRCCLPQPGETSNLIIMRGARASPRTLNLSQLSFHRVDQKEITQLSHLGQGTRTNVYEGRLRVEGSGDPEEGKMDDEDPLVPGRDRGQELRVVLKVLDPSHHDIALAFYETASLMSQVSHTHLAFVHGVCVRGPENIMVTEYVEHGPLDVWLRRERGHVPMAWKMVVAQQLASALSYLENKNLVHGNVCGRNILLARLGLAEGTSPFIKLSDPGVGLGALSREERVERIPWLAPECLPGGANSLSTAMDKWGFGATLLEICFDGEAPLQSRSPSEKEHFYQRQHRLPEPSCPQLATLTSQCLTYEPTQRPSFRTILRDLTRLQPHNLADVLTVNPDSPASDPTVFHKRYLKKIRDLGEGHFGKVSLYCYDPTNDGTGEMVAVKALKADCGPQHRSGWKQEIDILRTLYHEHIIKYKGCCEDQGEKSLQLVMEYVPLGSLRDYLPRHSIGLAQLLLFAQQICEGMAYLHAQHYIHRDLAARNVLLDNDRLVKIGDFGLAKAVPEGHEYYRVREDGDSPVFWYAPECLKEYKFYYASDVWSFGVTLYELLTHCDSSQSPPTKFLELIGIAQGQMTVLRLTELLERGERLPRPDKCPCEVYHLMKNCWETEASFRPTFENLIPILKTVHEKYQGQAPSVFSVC

Compound | IC50 [1] | Ki (JAK3) | JAK3 (pKi)-JAK1 (pKi) (JAK3) | Ki (Tyk2) | Ki (JAK1) | Ki (JAK2) | Tall-1 (pIC50) [1] | JAK 3 (pKi) (JAK3) | Tyk 2 (pKi) (Tyk2) | JAK 1 (pKi) (JAK1) | JAK 2 (pKi) (JAK2)
C=CC(=O)N1CC[C@H](Oc2cc(-c3ccc(O)c(Cl)c3)cc3[nH]nc(SC)c23)C1 [Compound 1-41] | 31.6 to 200 nM | 0.1 to 1 nM | A (a value of 3 or above) | > 100 nM | > 100 nM | > 100 nM | – | – | – | – | –
C=CC(=O)N1CC[C@H](Oc2cc(-c3ccc(O)cc3)cc3[nH]nc(OC)c23)C1 [Compound 1-44] | < 31.6 nM | < 0.1 nM | A (a value of 3 or above) | > 100 nM | > 100 nM | > 100 nM | – | – | – | – | –
C=CC(=O)N1CC[C@H](Oc2cc(-c3ccc(O)cc3)cc3[nH]nc(C#N)c23)C1 [Compound 1-45] | < 31.6 nM | < 0.1 nM | A (a value of 3 or above) | > 100 nM | > 100 nM | > 100 nM | – | – | – | – | –
C=CC(=O)N1CC[C@H](Oc2cc(-c3ccc(O)cc3)cc3[nH]nc(Cl)c23)C1 [Compound 1-47] | – | – | B (a value of 2.3 to 3) | – | – | – | B (a pIC50 value between 6.7 (included) and 7.5 (IC50 between 200 nM and 32 nM)) | B (a pKi value between 9 and 10 (Ki between 1 nM and 0.1 nM)) | E (a pKi value of 7 or below (Ki of 100 nM or above)) | E (a pKi value of 7 or below (Ki of 100 nM or above)) | E (a pKi value of 7 or below (Ki of 100 nM or above))
CN(C)C/C=C/C(=O)N1CC[C@H](COc2cc(-c3ccc(O)c(Cl)c3)cc3[nH]ncc23)C1 [Compound 2-2] | – | – | A (a value of 3 or above) | – | – | – | B (a pIC50 value between 6.7 (included) and 7.5 (IC50 between 200 nM and 32 nM)) | B (a pKi value between 9 and 10 (Ki between 1 nM and 0.1 nM)) | E (a pKi value of 7 or below (Ki of 100 nM or above)) | E (a pKi value of 7 or below (Ki of 100 nM or above)) | D (a pKi value between 7 and 8 (Ki between 100 nM and 10 nM))
C=CC(=O)N1CC[C@H](COc2cc(-c3ccc(O)c(Cl)c3)cc3[nH]ncc23)C1 [Compound 2-3] | – | – | A (a value of 3 or above) | – | – | – | B (a pIC50 value between 6.7 (included) and 7.5 (IC50 between 200 nM and 32 nM)) | B (a pKi value between 9 and 10 (Ki between 1 nM and 0.1 nM)) | E (a pKi value of 7 or below (Ki of 100 nM or above)) | E (a pKi value of 7 or below (Ki of 100 nM or above)) | D (a pKi value between 7 and 8 (Ki between 100 nM and 10 nM))
C=CC(=O)N1CC[C@H](COc2cc(-c3ccc(O)c(F)c3)cc3[nH]ncc23)C1 [Compound 2-5] | – | – | A (a value of 3 or above) | – | – | – | B (a pIC50 value between 6.7 (included) and 7.5 (IC50 between 200 nM and 32 nM)) | B (a pKi value between 9 and 10 (Ki between 1 nM and 0.1 nM)) | E (a pKi value of 7 or below (Ki of 100 nM or above)) | E (a pKi value of 7 or below (Ki of 100 nM or above)) | D (a pKi value between 7 and 8 (Ki between 100 nM and 10 nM))
C=CC(=O)N1CC[C@H](COc2nc(-c3ccc(O)cc3)cc3[nH]ncc23)C1 [Compound 2-8] | – | – | A (a value of 3 or above) | – | – | – | B (a pIC50 value between 6.7 (included) and 7.5 (IC50 between 200 nM and 32 nM)) | B (a pKi value between 9 and 10 (Ki between 1 nM and 0.1 nM)) | E (a pKi value of 7 or below (Ki of 100 nM or above)) | E (a pKi value of 7 or below (Ki of 100 nM or above)) | D (a pKi value between 7 and 8 (Ki between 100 nM and 10 nM))
C=CC(=O)N1CC[C@H](COc2nc(-c3ccc(O)c(F)c3)cc3[nH]ncc23)C1 [Compound 2-10] | – | – | A (a value of 3 or above) | – | – | – | A (a pIC50 value≥7.5 (IC50≤32 nM)) | B (a pKi value between 9 and 10 (Ki between 1 nM and 0.1 nM)) | E (a pKi value of 7 or below (Ki of 100 nM or above)) | E (a pKi value of 7 or below (Ki of 100 nM or above)) | D (a pKi value between 7 and 8 (Ki between 100 nM and 10 nM))
C=CC(=O)N1CC[C@H](COc2nc(-c3ccc(O)c(Cl)c3)nc3[nH]ncc23)C1 [Compound 2-11] | – | – | A (a value of 3 or above) | – | – | – | B (a pIC50 value between 6.7 (included) and 7.5 (IC50 between 200 nM and 32 nM)) | B (a pKi value between 9 and 10 (Ki between 1 nM and 0.1 nM)) | E (a pKi value of 7 or below (Ki of 100 nM or above)) | E (a pKi value of 7 or below (Ki of 100 nM or above)) | E (a pKi value of 7 or below (Ki of 100 nM or above))
C=CC(=O)N1CC[C@H](COc2nc(-c3ccc(O)c(F)c3)nc3[nH]ncc23)C1 [Compound 2-15] | – | – | A (a value of 3 or above) | – | – | – | B (a pIC50 value between 6.7 (included) and 7.5 (IC50 between 200 nM and 32 nM)) | A (a pKi value≥10 (Ki≤0.1 nM)) | E (a pKi value of 7 or below (Ki of 100 nM or above)) | E (a pKi value of 7 or below (Ki of 100 nM or above)) | E (a pKi value of 7 or below (Ki of 100 nM or above))
C=CC(=O)N1CC[C@H](COc2cc(-c3ccc(O)c(F)c3)nc3[nH]ncc23)C1 [Compound 2-17] | – | – | A (a value of 3 or above) | – | – | – | B (a pIC50 value between 6.7 (included) and 7.5 (IC50 between 200 nM and 32 nM)) | A (a pKi value≥10 (Ki≤0.1 nM)) | E (a pKi value of 7 or below (Ki of 100 nM or above)) | E (a pKi value of 7 or below (Ki of 100 nM or above)) | E (a pKi value of 7 or below (Ki of 100 nM or above))
C=CC(=O)N1CC(COc2cc(-c3ccc(O)cc3)cc3[nH]ncc23)C1 [Compound 3-1] | < 31.6 nM | 0.1 to 1 nM | A (a value of 3 or above) | > 100 nM | > 100 nM | > 100 nM | – | – | – | – | –
